System: root-knot nematodes (Meloidogyne sp), some Pratylenchus sp.
Test: Water screen, plant parasitic nematodes
Type: in vivo
Experimental: 100 microliters containing nematodes were pipetted into 2.5 cm Petri dishes. The nematodes used were principally root-knot nematodes (Meloidogyne sp) but some initial observations were also made on some Pratylenchus sp. and free-living species (non-plant parasites). 900 microliters of Loquat extract, or 500 microliters of Loquat extract plus 400 microliters of water, were added to the nematodes to give concentrations of 90 or 50% of the original Loquat extract. Total added volume was therefore 1 ml.
Controls were nematodes from the same source placed in tap water.
Following application of the Loquat or amygdalin solution, observations were made after 10 minutes, the next day, and after 5 days.

SMILES: N#C[C@H](O[C@@H]1O[C@H](CO[C@@H]2O[C@H](CO)[C@@H](O)[C@H](O)[C@H]2O)[C@@H](O)[C@H](O)[C@H]1O)c1ccccc1 [amygdalin]
- Activity of nematodes (10 minutes, both concentrations (70 mg or 400 mg in 50 ml water)): still active
- Activity of nematodes (5 days later, both amygdalin treatments): still active
- Activity of amygdalin itself (conclusion) (in vivo): not active per se
- Activity of nematodes (next day, both amygdalin treatments): active
